Test results published in US20030108629A1, “Compositions and methods for prostate and kidney health and disorders, an herbal preparation” (priority 2001, published 2003).

Experiment: Case report: incontinence person with enlarged prostate
Format: in vivo, human
Conditions: prescribed for enlarged prostate
Text: The 9-herb composition and Incontinence. Person diagnosed with having an enlarged prostate suffered from frequent-urination problems including increased daily frequency and reduced volume. They had the urge to urinate every two hours and the amount was only a few drops. Their symptoms were attributed to old age. […] They are able to urinate what they consider a normal amount of urine in a steady stream as opposed to the dribbling they experienced prior to taking the 9-herb composition. […] Because they are sleeping better, they have more energy throughout the day.

CC(C)(C)NC(=O)[C@H]1CC[C@H]2[C@@H]3CC[C@H]4NC(=O)C=C[C@]4(C)[C@H]3CC[C@]12C [PROSCAR]
effect on urination problem: did not alleviate the urination problem
